Data: ChEMBL document CHEMBL5126520, “Recent research results have converted gp120 binders to a therapeutic option for the treatment of HIV-1 infection. A medicinal chemistry point of view” (Eur J Med Chem, 2022)
One block for each compound: values may come before it. Starred links: 1 amine or outer side, 2 acyl side, 3 side chain; linkers in the order of their positions; H or OH if unused. Positions of bridges follow the written chain, without caps; N, C: chain ends. Non-standard residues stand in square brackets, D forms with d. Residues, ends and D or L forms follow the SMILES beside them. X1 = O=C([C@@H]1CC(n2cc(-c3ccc(-c4cccs4)cc3)nn2)CN1[*:1])[*:2]

Legend:
[1] = tested on: Human immunodeficiency virus 1; test: Antiviral activity against HIV-1 IIIB(X4) infected in human MT2 cells assessed as reduction in p24 antigen level preincubated for 30 mins followed by infection with cells and measured after 3 to 4 days by ELISA; type: functional, organism-based; conditions: Human immunodeficiency virus 1, IIIB(X4)
[2] = tested on: Human immunodeficiency virus 1; test: Antiviral activity against HIV-1 Bal(R5) infected in human CEMx174 5.25M7 cells assessed as reduction in p24 antigen level preincubated for 30 mins followed by infection with cells and measured after 3 to 4 days by ELISA; type: functional, organism-based; conditions: Human immunodeficiency virus 1, Bal(R5)
[3] = tested on: Human immunodeficiency virus 1; test: Antiviral activity against HIV-1 Bal.01 infected in HOS.T4.R5 cells preincubated for 45 mins followed by infection with cells and measured 24 hrs post infection by luminescence based analysis; type: functional, organism-based; conditions: Human immunodeficiency virus 1, Bal.01, HOS.T4.R5
[4] = Cytotoxicity against HOS.T4.R5 cells assessed as reduction in cell viability incubated for 24 hrs by WST-1 assay; type: toxicity, cell-based; conditions: human
[5] = tested on: Human immunodeficiency virus 1; test: Antiviral activity against HIV-1 Bal(R5) infected in human CEMx174 5.25M7 cells assessed as inactivation of HIV-1 free virions by measuring p24 antigen level preincubated for 1 hr followed by infection with cells and measured after 3 to 4 days by ELISA; type: functional, organism-based; conditions: Human immunodeficiency virus 1, Bal(R5)
[6] = tested on: Human immunodeficiency virus 1; test: Antiviral activity against HIV-1 IIIB(X4) infected in human CEMx174 5.25M7 cells assessed as inactivation of HIV-1 free virions by measuring p24 antigen level preincubated for 1 hr followed by infection with cells and measured after 3 to 4 days by ELISA; type: functional, organism-based; conditions: Human immunodeficiency virus 1, IIIB(X4)
[7] = Cytotoxicity against human MT2 cells assessed as reduction in cell viability incubated for 48 hrs by CCK-8 assay; type: toxicity, cell-based
[8] = Cytotoxicity against human CEMx174 5.25M7 cells assessed as reduction in cell viability incubated for 48 hrs by CCK-8 assay; type: toxicity, cell-based
[9] = tested on: Human immunodeficiency virus 1; test: Antiviral activity against HIV-1 YU-2 assessed as inhibition of viral entry; type: functional, organism-based; conditions: Human immunodeficiency virus 1, YU-2
[10] = tested on: Human immunodeficiency virus 1; test: Antiviral activity against HIV-1 JR-FL; type: functional, organism-based; conditions: Human immunodeficiency virus 1, JR-FL
[11] = molecular target: Envelope glycoprotein gp160 (Human immunodeficiency virus 1, UniProt Q6QLK5); test: Inhibition of HIV1 gp120 interaction with CD4 pretreated for 1 hr followed by TMB substrate addition and measured after 10 mins by ELISA
[12] = tested on: Human immunodeficiency virus 1; test: Antiviral activity against HIV-1 CH58TF infected in human TZM-bl cells assessed as neutralization viral infection pretreated for 1 hr followed by infection with cells and measured after 48 hrs by luciferase assay; type: functional, organism-based; conditions: Human immunodeficiency virus 1, CH58TF
[13] = Cytotoxicity against human MT2 cells assessed as reduction in cell viability incubated for 4 days by XTT assay; type: toxicity, cell-based; conditions: time 4 day
[14] = tested on: Human immunodeficiency virus 1; test: Antiviral activity against HIV-1 IIIB infected in human MT2 cells assessed as reduction in p24 antigen level incubated for 1 hr by ELISA; type: functional, organism-based; conditions: Human immunodeficiency virus 1, IIIB, MT2, 1 h
[15] = Selectivity index, ratio of CC50 for cytotoxicity against human MT2 cells to EC50 for antiviral activity against HIV-1 IIIB infected in human MT2 cells; type: toxicity, cell-based; conditions: read-out: Ratio CC50/EC50
[16] = tested on: Human immunodeficiency virus 1; test: Antiviral activity against HIV-1 pseudotyped virus expressing HXB-2 Env proteins infected in human TZM-bl cells assessed as inhibition of viral entry preincubated for 30 mins followed by infection with cells and measured after 3 days by luciferase based analysis; type: functional, organism-based; conditions: Human immunodeficiency virus 1, TZM-bl
[17] = Selectivity index, ratio of CC50 for Cytotoxicity against human TZM-bl cells to EC50 for antiviral activity against HIV-1 pseudotyped virus expressing HXB-2 Env proteins infected in human TZM-bl cells; type: toxicity, cell-based; conditions: read-out: Ratio CC50/EC50
[18] = tested on: Human immunodeficiency virus 1; test: Antiviral activity against laboratory-adapted HIV-1 NL4-3 infected in human TZM-bl cells incubated for 2 days by luciferase based analysis; type: functional, organism-based; conditions: Human immunodeficiency virus 1, NL4-3, TZM-bl, 48 h
[19] = Cytotoxicity against human MT2 cells assessed as reduction in cell viability incubated for 4 days by MTS assay; type: toxicity, cell-based; conditions: time 4 day
[20] = Cytotoxicity against human TZM-bl cells assessed as reduction in cell viability incubated for 3 days by MTS assay; type: toxicity, cell-based; conditions: time 3 day
[21] = tested on: Human immunodeficiency virus 1; test: Antiviral activity against HIV-1 IIIB infected in human MT2 cells assessed as inhibition of p24 production preincubated for 30 mins followed by infection with cells and measured after 4 days by ELISA; type: functional, organism-based; conditions: Human immunodeficiency virus 1, IIIB

Chain of Envelope glycoprotein gp160 (Q6QLK5 whole entry): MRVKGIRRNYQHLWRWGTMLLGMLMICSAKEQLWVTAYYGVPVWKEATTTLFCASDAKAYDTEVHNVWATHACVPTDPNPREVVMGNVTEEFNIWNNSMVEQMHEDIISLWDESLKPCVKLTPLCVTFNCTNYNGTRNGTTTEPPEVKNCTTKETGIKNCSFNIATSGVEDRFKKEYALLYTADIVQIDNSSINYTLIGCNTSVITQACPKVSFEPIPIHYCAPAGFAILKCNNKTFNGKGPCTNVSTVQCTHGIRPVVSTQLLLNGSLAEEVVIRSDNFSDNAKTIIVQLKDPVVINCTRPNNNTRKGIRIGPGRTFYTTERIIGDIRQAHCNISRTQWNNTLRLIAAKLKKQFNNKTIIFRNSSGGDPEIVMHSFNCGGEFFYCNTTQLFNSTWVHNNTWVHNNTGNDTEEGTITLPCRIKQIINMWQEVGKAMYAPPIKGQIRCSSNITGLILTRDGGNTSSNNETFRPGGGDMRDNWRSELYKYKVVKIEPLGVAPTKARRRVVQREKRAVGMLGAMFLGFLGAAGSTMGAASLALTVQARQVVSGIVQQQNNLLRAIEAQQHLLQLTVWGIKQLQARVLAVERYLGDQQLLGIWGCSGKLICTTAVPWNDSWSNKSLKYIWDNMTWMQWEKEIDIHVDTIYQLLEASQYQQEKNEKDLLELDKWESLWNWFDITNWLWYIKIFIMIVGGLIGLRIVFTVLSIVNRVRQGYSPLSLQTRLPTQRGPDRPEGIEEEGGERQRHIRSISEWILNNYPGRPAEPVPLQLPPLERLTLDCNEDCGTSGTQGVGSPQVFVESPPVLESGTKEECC

SMILES: CC[C@H](C)[C@@H]1NC(=O)[C@H](CC(N)=O)NC(=O)[C@@H](N)CC(=O)NCCCC[C@@H](C(N)=O)NC(=O)[C@H](Cc2c[nH]c3ccccc23)NC(=O)[C@@H]2CC(n3cc(-c4ccc(-c5cccs5)cc4)nn3)CN2C1=O (stereo partly specified) (H-DNI[X1]WK-NH2; lactam 1-6)
EC50 [3]: 105 nM
CC50 at 24 h [4]: 100000 nM

SMILES: COc1ccnc2[nH]cc(C(=O)C(=O)N3CCN(C(=O)c4ccccc4)CC3)c12
IC50 [11]: 1.5 nM

SMILES: CCOC(=O)N1CCC[C@H](C(=O)Nc2ccc(Cl)c(F)c2)C1
EC50 [10]: 18000 nM

SMILES: NCCNC(=O)N1CCC[C@H](C(=O)Nc2ccc(Cl)c(F)c2)C1
EC50 [12]: 7000 nM

SMILES: COc1ccnc2[nH]cc(C(=O)C(=O)N3CCN(C(=O)c4ccccc4)C[C@H]3C)c12
EC50 [18]: 2200 nM

SMILES: CCOC(=O)N1CCCC(C(=O)Nc2ccc(Cl)c(F)c2)C1 (racemic)
EC50 [10]: 8300 nM

SMILES: COc1cnc(-c2csc(CN(C)CCCN(C)C)n2)c2[nH]cc(C(=O)C(=O)N3CCC([C@@H](C#N)c4ccccc4)CC3)c12
EC50 [18]: 20 nM

SMILES: Cc1nc(C(CN)NC(=O)c2ccc(-c3ccc4c(c3)OCO4)[nH]2)sc1CO (stereo unspecified)
CC50 at 96 h [19]: 193000 nM
CC50 at 72 h [20]: 146000 nM
selectivity ratio [15]: 51
EC50 [21]: 3800 nM
EC50 [16]: 2300 nM
selectivity ratio [17]: 63

Continued, in another order:

IC50 [1]: 830 nM
IC50 [2]: 830 nM
SMILES: O=C(O)c1cc(-c2ccc(/C=C3\SC(=S)N(CCc4ccc(O)cc4)C3=O)o2)ccc1Cl

IC50 [5]: 660 nM
IC50 [6]: 710 nM
SMILES: CC1(C)CC(NC(=O)C(=O)Nc2ccc(Cl)c(F)c2)CC(C)(C)N1C(=O)COc1ccc(CCN2C(=O)/C(=C/c3ccc(-c4ccc(Cl)c(C(=O)O)c4)o3)SC2=S)cc1
CC50 at 48 h [7]: 29000 nM
CC50 at 48 h [8]: 18000 nM

IC50 [1]: 830 nM
IC50 [2]: 830 nM
SMILES: CC1(C)CC(NC(=O)C(=O)Nc2ccc(Cl)c(F)c2)CC(C)(C)N1

EC50 [9]: 1600 nM
SMILES: CNCc1ccc2c(c1)[C@H](NC(=O)C(=O)Nc1ccc(Cl)c(F)c1)[C@@H](CNC(=N)N)C2

EC50 [10]: 22000 nM
SMILES: CNCc1ccc2c(c1)[C@@H](CC[C@@H](O)CO)[C@H](CNC(=N)N)[C@H]2NC(=O)C(=O)Nc1ccc(Cl)c(F)c1

EC50 [14]: 6500 nM
EC50 [16]: 6900 nM
SMILES: CC1(C)CC(NC(=O)C(=O)Nc2ccc(Cl)cc2)CC(C)(C)N1
CC50 at 96 h [13]: > 280000 nM
selectivity ratio [15]: > 43
selectivity ratio [17]: 8.7

EC50 [9]: 1300 nM
EC50 [12]: 110 nM
SMILES: CN(Cc1ccc2c(c1)[C@H](NC(=O)C(=O)Nc1ccc(Cl)c(F)c1)[C@@H](CNC(=N)N)C2)C(=N)N
